In patent US6093717A, “Imidazopyridine thrombin inhibitors” (Merck & Co., Inc., priority 1999, dated 2000) one finds Ki data, which are given here for nine compounds.

Where a name gives a salt, the structure may show the parent alone.

This assay concerns the target human α-thrombin (Homo sapiens, UniProt P00734). Put plainly: In vitro assay for determining proteinase inhibition: human α-thrombin. It is filed as biochemical. To be noted: 25° C., 0.05 M TRIS buffer pH 7.4, 0.15 M NaCl, 0.1% PEG, class symbols, read-out: Inhibitory activity (Ki). On the procedure: In Vitro Assay For Determining Proteinase Inhibition
The assays were carried out at 25° C. in 0.05 M TRIS buffer pH 7.4, 0.15 M NaCl, 0.1% PEG. Trypsin assays also contained 1 mM CaCl2.
Concentrations of stock solutions of Z-GPR-afc were determined from measurements of absorbance at 380 nm of the 7-amino-4-trifluoromethyl coumarin produced upon complete hydrolysis of an aliquot of the stock solution by thrombin.
Times required to achieve equilibration between enzyme and inhibitor were determined in control experiments. Initial velocities of product formation in the absence (Vo) or presence of inhibitor (Vi) were measured. Assuming competitive inhibition, and that unity is negligible compared Km /[S], […] (where [S], [I], and e respectively represent the total concentrations, of substrate, inhibitor and enzyme), the equilibrium constant (Ki) for dissociation of the inhibitor from the enzyme can be obtained from the dependence of Vo /Vi on [I] shown in equation 1.
As usually defined, the Ki is the dissociation constant of the complex between target and ligand, obtained from inhibition or displacement. In the case of `Cc1cnc(NCCc2ccccc2)c(=O)n1CC(=O)NCc1ccc2nccn2c1` [Example 1, dihydrochloride], the Ki was more than 0.02 µM.

In the case of `Cc1cc(CNC(=O)Cn2c(C)cnc(NCCc3ccccc3)c2=O)cn2ccnc12` [Example 3, dihydrochloride], the Ki was more than 0.02 µM.

Consider `Cc1cc2nccn2cc1CNC(=O)Cn1c(C)cnc(NCCc2ccccc2)c1=O` [Example 4, dihydrochloride], for which the Ki is more than 0.02 µM.

Turning to `Cc1cnc(NCCc2ccccc2)c(=O)n1CC(=O)NCc1ccn2ccnc2c1` [Example 5, 3-(2-Phenethyleneamino)-6-methyl-1-(6-methylenecarboxamidomethylene-imidazo[1,2-a]pyridinyl)-pyrazinone], the Ki is more than 0.02 µM.

Consider `Cc1cc(S(=O)(=O)CC2CCC2)c(N)c(=O)n1CC(=O)NCc1ccc2nccn2c1C` [Example 6, 3-Amino-4-cyclobutylmethylenesulfonyl-6-methyl-1-(4-methyl-5-methylenecarboxamidomethyleneimidazo[1,2-a]pyridinyl)-pyridinone hydrochloride], for which the Ki is less than 0.02 µM.

As to `Cc1cnc(NCCc2ccccn2)c(=O)n1CC(=O)NCc1ccc2nccn2c1C` [Example 7, 3-[2-(2-Pyridyl)ethyleneamino]-6-methyl-1-(4-methyl-5-methylenecarboxamidomethyleneimidazo[1,2-a]pyridinyl)-pyrazinone], the Ki is less than 0.02 µM.

As for `Cc1ccc(NS(=O)(=O)Cc2ccccc2)c(=O)n1CC(=O)NCc1ccc2nccn2c1C` [Example 8, hydrochloride], the Ki is less than 0.02 µM.

Regarding `Cc1cc2c(c(=O)n1CC(=O)NCc1ccc3nccn3c1C)NC(=O)[C@H](Cc1ccccc1)C2` [Example 9, [R]-7-(4-methyl-5-methylenecarboxamidomethyleneimidazo[1,2-a]pyridinyl)-3-benzyl-6-methyl-2-oxo-1,2,3,4-tetrahydro-1,7-naphthiridin-[7H]-8-one], the Ki is less than 0.02 µM.

With `CC[C@H](C)CC1Cc2cc(C)n(CC(=O)NCc3ccc4nccn4c3C)c(=O)c2NC1=O` (stereo partly drawn) [Example 10, 7-(4-methyl-5-methylenecarboxamidomethyleneimidazo[1,2-a]pyridinyl)-3-[RS]-(2-[S]-methylbutyl)-6-methyl-2-oxo-1,2,3,4-tetrahydro-1,7-naphthiridin-[7H]-8-one], the Ki was less than 0.02 µM.
